Laboratory results: patent US10577322B2, “5-methoxytryptophan and its derivatives and uses thereof” (National Health Research Institutes, priority 2015, dated 2020)

How the values were obtained:
[1] = tested on: BT474 breast cancer cells; experiment: Transwell cell migration assay, BT474; format: cell-based; conditions: 30 min pretreatment, PMA 4 h or 24 h
Description: (§1) Briefly, cells (10^4/well) were seeded on the upper chamber (6.5-mm insert, 8-μm polycarbonate membrane; Corning Inc.), which was placed in each well of a 24-well plate. The lower chamber was filled with 700 μL DMEM supplemented with 10% FBS. For assessment of in vitro invasion, cells were seeded onto the upper chamber insert coated with Matrigel (BD Biosciences) under the same conditions as the transwell migration assays. At the indicated time, nonmigrated cells that remained at the top surface of the insert were removed with a cotton swab. Cells that migrated to the lower membrane surface and cells that invaded through the matrigel gel to the underside of the membrane were fixed, stained with 0.1% crystal violet for 20 min, and counted under light microscopy. All of the assays were done in triplicate with excellent reproducibility.
(§2) Lung cancer A549 and breast cancers BT474 and T47D cells were pretreated with different concentrations of 5-MTP or 5-MTPE for 30 min, then stimulated with PMA for 4 h or 24 h. Cell migration was measured by the transwell migration assay.

[2] = tested on: A549 lung cancer cells; experiment: Transwell cell migration assay, A549; format: cell-based; conditions: 30 min pretreatment, PMA 4 h or 24 h
Description: as §1, §2

[3] = tested on: T47D breast cancer cells; experiment: Transwell cell migration assay, T47D; format: cell-based; conditions: 30 min pretreatment, PMA 4 h or 24 h
Description: as §1, §2

[4] = tested on: COX-2; experiment: PMA-induced COX-2 expression in A549 cells (immunoblot); format: cell-based; conditions: for PMA-induced COX-2 protein expression: 30 min pretreatment, PMA 8 h
Description: Cellular protein were resolved by 5% to 20% SDS-PAGE and transferred to nitrocellulose membranes and blotted with specific antibodies as previously described (Lee, G. L., et al.).
After pretreating A549 cells with different concentrations of 5-MTP, 5-MTPE and NACT-5-MTP for 30 min, cells were stimulated with PMA for 8 h. Cell lysates were immunoblotted with antibodies for COX-2 or β-actin.

[5] = tested on: A549 subcutaneous tumor; experiment: Tumor xenograft experiment (A549 s.c. in SCID mice); format: in vivo; conditions: 100 mg/kg intraperitoneal twice weekly; for subcutaneous tumor volume: 7 weeks
Description: Six-week-old male CB-17 SCID mice, purchased from BioLASCO, were housed in a daily cycle of 12-h light and 12-h darkness and pathogen-free conditions at 26° C. at the Animal Center of the National Health Research Institutes. A549-luc-C8 cells (Caliper Life Sciences), cultured in RPMI-1640 supplemented with 10% FBS, were pretreated with 100 μM 5-MTP, 100 μM 5-MTPE or vehicle for 5 h and were inoculated into the flank of mice subcutaneously (s.c.) (5×10^6 cells/mouse). The 5-MTP-, or 5-MTPE-treated mice (n=10) were injected with 100 mg 5-MTP or 5-MTPE /kg body weight intraperitoneally twice weekly. The vehicle group (n=10) was injected with vehicle (0.033 N HCl in RPMI medium, neutralized with NaOH) twice weekly. The size of s.c. tumors were caliper-measured twice weekly. The tumor volume was calculated according to the formula of length×width×width/2. The tumor growth was also monitored weekly by an IVIS spectrum imaging system. Mice were euthanized at day 52. Subcutaneous tumors and lungs were removed and fixed with 10% Formalin. Nodules on each lobe of the lungs were counted. Histology of the nodules was examined under microscopy by tissue section and H&E staining. The animals' care was in accordance with institutional guidelines and the protocol of in vivo experiments was approved by the Institutional Animal Care and Utilization Committee of the National Health Research Institutes.
In addition, A549 (5×10^6 cells) was injected subcutaneously into the flank of SCID-Beige mice. 10 mice each received intraperitoneal injection of 5-MTP (100 mg/kg), 5-MTPE (100 mg/kg) or vehicle twice weekly. Caliper measurement of the subcutaneous tumor volume periodically for 7 weeks. […] The average tumor volume at 7-week in the 5-MTP treated group was ˜50% of that in the control group.

[6] = tested on: COX-2 promoter; experiment: COX-2 promoter-luciferase assay in RAW264.7 cells; format: cell-based, mouse; conditions: for LPS-induced COX-2 promoter activity (luciferase): LPS 8 h
Description: RAW264.7 macrophages were cotransfected with COX-2 promoter-luciferase, IL-6 promoter-luciferase constructs as previously described (Lee, G. L., et al.) or p5xNF-κB-luciferase (Stratagene) and pcDNA3.1-β-galactosidase plasmids using FuGENE 6 (Roche). After overnight transfection, the cells were incubated with or without LPS in the presence or absence of 5-MTP for 8 h. After treatment, cells were lysed, and luciferase activity was measured using an assay kit (Promega). β-galactosidase activity was used to normalize the data.
After pretreating mouse macrophage RAW264.7 cells with different concentrations of 5-MTP for 30 min, cells were stimulated with LPS for 8 h. Cell lysates were immunoblotted with antibodies for COX-2 or β-actin. In addition, RAW264.7 cells were transfected with COX-2 promoter-luciferase plasmid. After 24 h transfection, the cells were incubated with LPS for 8 h. Luciferase activity was measured. The experiments were repeated 3 times with similar results. The results shown in FIGS. 3A-3B confirmed that 5-MTP blocked LPS-induced COX-2 protein expression and promoter activity in a concentration-dependent manner in RAW264.7 cells.
Herein, after pretreating RAW264.7 cells with different concentrations of 5-MTP, 5-MTPE, COX-2 inhibitors (NSC398 or SC560) and NF-κB inhibitor JSH-23 for 30 min, cells were stimulated with LPS. In addition, RAW264.7 cells were also transfected with COX-2 promoter-luciferase plasmid. After 24 h transfection, the cells were incubated with LPS for 8 h. Luciferase activity as measured.

[7] = tested on: LPS-induced endotoxemia; format: in vivo
Description: C57BL/6 mice (6-8 wks old) were treated intraperitoneally with saline or with different concentrations of 5-MTP (23.4 or 100 mg/kg) for 30 min before intraperitoneal administration of LPS (60 mg/kg). Animals were monitored for survival and other clinical signs including ruffled fur, lethargy, diarrhea, and body weight loss. Some animals were sacrificed at different times after LPS injection. Blood samples, peritoneal exudates, lungs, and spleens were collected. All mouse experiments were approved by the institutional Animal Care and Use Committee, National Health Research Institutes.
Since suppression of 5-MTP by endotoxemia could contribute to uncontrolled macrophage overproduction of proinflammatory cytokines and mediators, we determined whether exogenous 5-MTP administration rescues mice from LPS-induced systemic inflammation, organ damage and mortality. Mice were injected with saline, 5-MTP (23.4 mg/kg), 5-MTPE (25 mg/kg) or vehicle for 30 min, followed by LPS (60 mg/kg) (saline, n=25; 5-MTP, n=7; 5-MTPE, n=7; LPS, n=30; LPS+5-MTP, n=25; LPS+5-MTPE, n=25). Survival was monitored during the next 72 h. *P<0.001 compared to LPS treatment.

[8] = 5-MTP 23.4 mg/kg 30 min before LPS 60 mg/kg

| SMILES | PMA-induced BT474 cell migration [1] | PMA-induced A549 cell migration [2] | PMA-induced T47D cell migration [3] | PMA-induced COX-2 protein expression [4] | average tumor volume at 7-week, of that in the control group [5] | subcutaneous tumor volume [5] | LPS-induced COX-2 promoter activity (luciferase) [6] | endotoxemic mice died at day 3 [7, 8] | mice died at day 1 [7, 8] | COX-2 suppressive activity compared with 5-MTP ([4]; PMA) | COX-2 suppressive activity compared with JSH-23 ([6]; LPS) | protective capacity in LPS-induced lethal endotoxemia ([7]; 5-MTPE 25 mg/kg 30 min before LPS 60 mg/kg, 72 h) |
| --- | --- | --- | --- | --- | --- | --- | --- | --- | --- | --- | --- | --- |
| COc1ccc2[nH]cc(C[C@H](N)C(=O)O)c2c1 [5-MTP, 5-methoxytryptophan] | abrogated | abrogated | abrogated | suppress | ~50% | suppressed tumor volume in a time-dependent manner | dose-dependently blocked | 20% | none |  |  |  |
| COC(=O)C(N)Cc1c[nH]c2ccc(OC)cc12 (stereo not drawn) [5-MTPE, ester-5-MTP] | abrogated | abrogated | abrogated | dose-dependently blocked |  | suppressed tumor volume in a time-dependent manner | dose-dependently blocked |  |  | potent than that of 5-MTP | potent than that of NF-κB inhibitor JSH-23 | 100% |
